{"source": "paper PMC11589570", "about": "“Critical assessment of LC3/GABARAP ligands used for degrader development and ligandability of LC3/GABARAP binding pockets” (Nature Communications, 2024)", "key": {"LC3A [1]": {"target": "T1, LC3A (Homo sapiens, UniProt Q9H492)", "assay": "FP assay with Cy5-labelled p62 LIR tracer (protein titration and tracer displacement)", "format": "binding", "settings": "two replicate columns per compound"}, "LC3A [2]": {"target": "T1, LC3A", "assay": "Isothermal titration calorimetry (ITC)", "format": "binding", "settings": "LC3A", "excerpt": "To minimize nonspecific dilution heat effects, DMSO concentrations in the protein and compound samples were matched. […] For this protocol, the chamber was pre-equilibrated with the protein, and the test compounds were titrated while continuously measuring the rate of exothermic heat evolution. The heat of binding was integrated, corrected, and fitted to an independent single-binding site model based on the manufacturer’s instructions, from which thermodynamic parameters (ΔH and TΔS), equilibrium association and dissociation constants (KA and KD, respectively), and stoichiometry (n) were calculated using TA Instruments NanoAnalyze software."}, "LC3B": {"target": "LC3B (Homo sapiens, UniProt Q9GZQ8)", "assay": "FP assay with Cy5-labelled p62 LIR tracer (protein titration and tracer displacement)", "format": "binding", "settings": "for normalized FP signal, p62 LIR tracer displacement: LC3B; for compound titration LC3B (displacement curve, FP signal): two replicate columns per compound"}, "RPE1 cells": {"tested_on": "RPE1 cells", "assay": "Cell growth assay (IncuCyte confluence over 72 h)", "format": "cell-based", "settings": "listed as KT1", "description": "Cell growth assay: Cell confluence (phase) from RPE1 (hTERT RPE-1, ATCC CLR_4000) or U2OS (ATCC, HTB-96) cell lines were monitored over time with the IncuCyte S3 (Sartiorius, Germany) in 384-well plates in 50 ul DMEM media, supplemented with 10% Fetal Bovine Serum (FBS) 1% penicillin/Streptomycin and incubated 24 h before treatment. Experiment was performed as described in Cano-Franco et al.. 50 μl of media containing either 2× final concentration of indicated compounds in or control compounds (final conc.: 0.1% DMSO, 250 nM Torin1, 200 ng/mL Bafilomycin) were added and images were taken every two hours over 72 h. Cell confluence is represented as % of area covered by cells. Each data point represents the average ratio or confluence obtained from three individual wells of the plate."}, "[3]": {"settings": "log10 concentration [M] -3.82391"}, "[4]": {"settings": "log10 concentration [M] -4.1549"}, "[5]": {"settings": "log10 concentration [M] -4.60206"}, "[6]": {"settings": "log10 concentration [M] -5.30103"}, "[7]": {"settings": "log10 concentration [M] -5.69897"}, "[8]": {"settings": "log10 concentration [M] -6.22185"}, "[9]": {"settings": "log10 concentration [M] -6.69897"}, "[10]": {"settings": "log10 concentration [M] -7.30103"}, "[11]": {"settings": "log10 concentration [M] -7.79588"}, "[12]": {"settings": "log10 concentration [M] -8.08092"}}, "note": "Values joined by “and” are separate entries in the source; they are usually repeats but may differ in a detail not shown here. Identical values can stand only once."}
{"compound": "Cc1ccc(C)c(S(=O)(=O)Nc2cc(SCC(=O)O)c(O)c3ccccc23)c1", "note": "[compound 8]", "values": [{"measurement": "compound titration LC3A (displacement curve, FP signal)", "setting": "LC3A [1]; [3]", "result": "97.6316 and 96.3158"}, {"measurement": "compound titration LC3A (displacement curve, FP signal)", "setting": "LC3A [1]; [4]", "result": "102.368 and 100.263"}, {"measurement": "compound titration LC3A (displacement curve, FP signal)", "setting": "LC3A [1]; [5]", "result": "93.6842 and 106.579"}, {"measurement": "compound titration LC3A (displacement curve, FP signal)", "setting": "LC3A [1]; log10 concentration [M] -5", "result": "101.842 and 99.2105"}, {"measurement": "compound titration LC3A (displacement curve, FP signal)", "setting": "LC3A [1]; [6]", "result": "105 and 102.368"}, {"measurement": "compound titration LC3A (displacement curve, FP signal)", "setting": "LC3A [1]; [7]", "result": "101.842 and 94.2105"}, {"measurement": "compound titration LC3A (displacement curve, FP signal)", "setting": "LC3A [1]; [8]", "result": "98.9474 and 95.2632"}, {"measurement": "compound titration LC3A (displacement curve, FP signal)", "setting": "LC3A [1]; [9]", "result": 98.4211}, {"measurement": "compound titration LC3A (displacement curve, FP signal)", "setting": "LC3A [1]; [10]", "result": "101.842 and 96.5789"}, {"measurement": "compound titration LC3A (displacement curve, FP signal)", "setting": "LC3A [1]; [11]", "result": "97.8947 and 91.3158"}, {"measurement": "compound titration LC3A (displacement curve, FP signal)", "setting": "LC3A [1]; [12]", "result": "102.105 and 89.4737"}, {"measurement": "outcome of ITC titration", "setting": "LC3A [2]", "result": "induced protein precipitation"}, {"measurement": "normalized FP signal, p62 LIR tracer displacement", "setting": "LC3B; [3]", "result": "74.4737 and 78.6842"}, {"measurement": "normalized FP signal, p62 LIR tracer displacement", "setting": "LC3B; [4]", "result": "94.4737 and 95.2632"}, {"measurement": "normalized FP signal, p62 LIR tracer displacement", "setting": "LC3B; [5]", "result": "95 and 102.105"}, {"measurement": "normalized FP signal, p62 LIR tracer displacement", "setting": "LC3B; log10 concentration [M] -5", "result": "92.8947 and 101.053"}, {"measurement": "normalized FP signal, p62 LIR tracer displacement", "setting": "LC3B; [6]", "result": "97.1053 and 100"}, {"measurement": "normalized FP signal, p62 LIR tracer displacement", "setting": "LC3B; [7]", "result": "93.6842 and 95.5263"}, {"measurement": "normalized FP signal, p62 LIR tracer displacement", "setting": "LC3B; [8]", "result": "100 and 92.1053"}, {"measurement": "normalized FP signal, p62 LIR tracer displacement", "setting": "LC3B; [9]", "result": "96.8421 and 99.4737"}, {"measurement": "normalized FP signal, p62 LIR tracer displacement", "setting": "LC3B; [10]", "result": "97.8947 and 102.368"}, {"measurement": "normalized FP signal, p62 LIR tracer displacement", "setting": "LC3B; [11]", "result": "96.5789 and 100"}, {"measurement": "normalized FP signal, p62 LIR tracer displacement", "setting": "LC3B; [12]", "result": "100.789 and 96.5789"}, {"measurement": "compound titration LC3B (displacement curve, FP signal)", "setting": "LC3B; [3]", "result": "74.4737 and 78.6842"}, {"measurement": "compound titration LC3B (displacement curve, FP signal)", "setting": "LC3B; [4]", "result": "94.4737 and 95.2632"}, {"measurement": "compound titration LC3B (displacement curve, FP signal)", "setting": "LC3B; [5]", "result": "95 and 102.105"}, {"measurement": "compound titration LC3B (displacement curve, FP signal)", "setting": "LC3B; log10 concentration [M] -5", "result": "92.8947 and 101.053"}, {"measurement": "compound titration LC3B (displacement curve, FP signal)", "setting": "LC3B; [6]", "result": "97.1053 and 100"}, {"measurement": "compound titration LC3B (displacement curve, FP signal)", "setting": "LC3B; [7]", "result": "93.6842 and 95.5263"}, {"measurement": "compound titration LC3B (displacement curve, FP signal)", "setting": "LC3B; [8]", "result": "100 and 92.1053"}, {"measurement": "compound titration LC3B (displacement curve, FP signal)", "setting": "LC3B; [9]", "result": "96.8421 and 99.4737"}, {"measurement": "compound titration LC3B (displacement curve, FP signal)", "setting": "LC3B; [10]", "result": "97.8947 and 102.368"}, {"measurement": "compound titration LC3B (displacement curve, FP signal)", "setting": "LC3B; [11]", "result": "96.5789 and 100"}, {"measurement": "compound titration LC3B (displacement curve, FP signal)", "setting": "LC3B; [12]", "result": "100.789 and 96.5789"}, {"measurement": "RPE1 cell growth", "setting": "RPE1 cells; 100 nM, 0 h", "result": "18 and 24 and 13"}, {"measurement": "RPE1 cell growth", "setting": "RPE1 cells; 100 nM, 6 h", "result": "23 and 30 and 15"}, {"measurement": "RPE1 cell growth", "setting": "RPE1 cells; 100 nM, 8 h", "result": "25 and 30 and 16"}, {"measurement": "RPE1 cell growth", "setting": "RPE1 cells; 100 nM, 10 h", "result": "25 and 32 and 17"}, {"measurement": "RPE1 cell growth", "setting": "RPE1 cells; 100 nM, 12 h", "result": "24 and 34 and 18"}, {"measurement": "RPE1 cell growth", "setting": "RPE1 cells; 1 uM, 0 h", "result": "19 and 20 and 26"}, {"measurement": "RPE1 cell growth", "setting": "RPE1 cells; 1 uM, 2 h", "result": "20 and 28"}, {"measurement": "RPE1 cell growth", "setting": "RPE1 cells; 1 uM, 4 h", "result": "20 and 25 and 32"}, {"measurement": "RPE1 cell growth", "setting": "RPE1 cells; 1 uM, 6 h", "result": "21 and 26 and 32"}, {"measurement": "RPE1 cell growth", "setting": "RPE1 cells; 1 uM, 8 h", "result": "22 and 29 and 35"}, {"measurement": "RPE1 cell growth", "setting": "RPE1 cells; 1 uM, 10 h", "result": "25 and 29 and 37"}, {"measurement": "RPE1 cell growth", "setting": "RPE1 cells; 1 uM, 12 h", "result": "27 and 32 and 38"}, {"measurement": "RPE1 cell growth", "setting": "RPE1 cells; 1 uM, 14 h", "result": 29}, {"measurement": "RPE1 cell growth", "setting": "RPE1 cells; 3 uM, 0 h", "result": "20 and 28 and 21"}, {"measurement": "RPE1 cell growth", "setting": "RPE1 cells; 3 uM, 2 h", "result": "23 and 30 and 21"}, {"measurement": "RPE1 cell growth", "setting": "RPE1 cells; 3 uM, 4 h", "result": "25 and 34 and 21"}, {"measurement": "RPE1 cell growth", "setting": "RPE1 cells; 3 uM, 6 h", "result": "25 and 34 and 23"}, {"measurement": "RPE1 cell growth", "setting": "RPE1 cells; 3 uM, 8 h", "result": "29 and 35 and 24"}, {"measurement": "RPE1 cell growth", "setting": "RPE1 cells; 3 uM, 10 h", "result": "29 and 37 and 26"}, {"measurement": "RPE1 cell growth", "setting": "RPE1 cells; 3 uM, 12 h", "result": "30 and 38 and 28"}, {"measurement": "RPE1 cell growth", "setting": "RPE1 cells; 3 uM, 14 h", "result": "32 and 42 and 30"}, {"measurement": "RPE1 cell growth", "setting": "RPE1 cells; 5 uM, 0 h", "result": "17 and 27 and 20"}, {"measurement": "RPE1 cell growth", "setting": "RPE1 cells; 5 uM, 2 h", "result": "20 and 30"}, {"measurement": "RPE1 cell growth", "setting": "RPE1 cells; 5 uM, 4 h", "result": "22 and 33 and 21"}, {"measurement": "RPE1 cell growth", "setting": "RPE1 cells; 5 uM, 6 h", "result": "22 and 36"}, {"measurement": "RPE1 cell growth", "setting": "RPE1 cells; 5 uM, 8 h", "result": "26 and 37 and 23"}, {"measurement": "RPE1 cell growth", "setting": "RPE1 cells; 5 uM, 10 h", "result": "25 and 39"}, {"measurement": "RPE1 cell growth", "setting": "RPE1 cells; 5 uM, 12 h", "result": "28 and 40 and 27"}, {"measurement": "RPE1 cell growth", "setting": "RPE1 cells; 5 uM, 14 h", "result": "29 and 45"}, {"measurement": "RPE1 cell growth", "setting": "RPE1 cells; 10 uM, 0 h", "result": "17 and 22 and 19"}, {"measurement": "RPE1 cell growth", "setting": "RPE1 cells; 10 uM, 2 h", "result": "20 and 23"}, {"measurement": "RPE1 cell growth", "setting": "RPE1 cells; 10 uM, 4 h", "result": "23 and 26 and 20"}, {"measurement": "RPE1 cell growth", "setting": "RPE1 cells; 10 uM, 6 h", "result": "24 and 31 and 22"}, {"measurement": "RPE1 cell growth", "setting": "RPE1 cells; 10 uM, 8 h", "result": "25 and 29 and 23"}, {"measurement": "RPE1 cell growth", "setting": "RPE1 cells; 10 uM, 10 h", "result": "26 and 28 and 25"}, {"measurement": "RPE1 cell growth", "setting": "RPE1 cells; 10 uM, 12 h", "result": "28 and 32 and 27"}]}
